# Assay results: ChEMBL document CHEMBL6109137, “Design, Synthesis, Evaluation, and SAR of 5-Phenylisoindoline Derivatives, a Potent Class of Small-Molecule Inhibitors Targeting the Programmed Cell Death-1/Programmed Cell Death-Ligand 1 (PD-1/PD-L1) Interaction” (J Med Chem, 2025)
# Activity calls are given as the source filed them. The rule behind the calls is not given here.
# How the values were obtained:
# [1] = Cytotoxicity against mouse MC38 cells measured after 48 hrs by MTT assay; type: toxicity, cell-based, MC-38
# Mus musculus [2] = test: Restoration of immune function in C57BL/6J mouse implanted with mouse MC38 cells assessed as increase in serum IL-6 level administered intraperitoneally once daily for 13 days by ELISA; type: functional, organism-based; conditions: dose 5-20 mg/kg, route ip, time 13.0 day
# [3] = Oral bioavailability in Sprague-Dawley rat at 20 mg/kg measured for 24 hrs by LC-MS/MS analysis; type: ADME, organism-based; conditions: in vivo
# [4] = Toxicity in C57BL/6J mouse implanted with mouse MC38 cells assessed as change in lung index at 5 to 20 mg/kg, ip qd for 13 days; type: organism-based; conditions: in vivo, 312 h, dose 5-20 mg/kg, time 13 day
# [5] = AUC (0 to infinity) in Sprague-Dawley rat at 20 mg/kg, po measured for 24 hrs by LC-MS/MS analysis; type: ADME, organism-based; conditions: in vivo
# MC-38 [6] = test: Antitumor activity against mouse MC38 cells implanted in C57BL/6J mouse assessed as increase in granzyme B level at 5 to 20 mg/kg, ip qd for 13 days by IHC analysis; type: functional, organism-based; conditions: dose 5-20 mg/kg, time 13.0 day
# MC-38 [7] = test: Inhibition of cell proliferation of mouse MC38 cells implanted in C57BL/6J mouse assessed as reduction in Ki67 level at 5 to 20 mg/kg, ip qd for 13 days by IHC analysis; type: functional, organism-based; conditions: dose 5-20 mg/kg, time 13.0 day
# [8] = biological target: Programmed cell death protein 1/Programmed cell death 1 ligand 1 (Homo sapiens, UniProt Q9NZQ7); test: Inhibition of interaction of PD-1/PD-L1 (unknown origin) by HTRF analysis; type: protein-complex assay
# Sequence of Programmed cell death protein 1/Programmed cell death 1 ligand 1 (Q15116 whole entry): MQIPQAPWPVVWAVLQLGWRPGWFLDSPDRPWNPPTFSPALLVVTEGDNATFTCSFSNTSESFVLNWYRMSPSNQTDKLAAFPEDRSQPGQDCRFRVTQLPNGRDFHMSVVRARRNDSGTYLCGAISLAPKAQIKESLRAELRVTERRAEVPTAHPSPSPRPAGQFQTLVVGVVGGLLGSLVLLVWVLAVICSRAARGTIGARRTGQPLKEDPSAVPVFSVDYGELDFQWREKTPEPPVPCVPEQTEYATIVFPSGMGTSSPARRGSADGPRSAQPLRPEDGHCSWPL
# Sequence of Programmed cell death protein 1/Programmed cell death 1 ligand 1 (Q9NZQ7 whole entry): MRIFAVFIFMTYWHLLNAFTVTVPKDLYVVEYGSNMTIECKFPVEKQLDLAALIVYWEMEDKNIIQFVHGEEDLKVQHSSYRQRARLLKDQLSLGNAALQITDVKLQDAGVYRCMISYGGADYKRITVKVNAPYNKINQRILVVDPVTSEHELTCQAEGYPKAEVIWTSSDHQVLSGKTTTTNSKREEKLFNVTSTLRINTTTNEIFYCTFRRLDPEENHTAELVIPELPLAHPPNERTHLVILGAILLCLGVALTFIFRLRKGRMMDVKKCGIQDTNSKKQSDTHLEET
# [9] = Toxicity in C57BL/6J mouse implanted with mouse MC38 cells assessed as change in heart index at 5 to 20 mg/kg, ip qd for 13 days; type: organism-based; conditions: in vivo, 312 h, dose 5-20 mg/kg, time 13 day
# [10] = Toxicity in C57BL/6J mouse implanted with mouse MC38 cells assessed as change in AST level at 40 to 160 mg/kg, IG qd for 7 days; type: organism-based; conditions: in vivo, po, 168 h, dose 40-160 mg/kg, time 7 day
# [11] = AUC (0 to 24 hrs) in Sprague-Dawley rat at 1 mg/kg, iv measured for 24 hrs by LC-MS/MS analysis; type: ADME, organism-based; conditions: in vivo
# MC-38 [12] = test: Inhibition of PD-L1-induced cell migration in mouse MC38 cells at 5 uM measured up to 24 hrs by scratch assay; type: functional, cell-based
# Mus musculus [13] = test: Restoration of immune function in C57BL/6J mouse implanted with mouse MC38 cells assessed as increase in serum IFN-gamma level administered intraperitoneally once daily for 13 days by ELISA; type: functional, organism-based; conditions: dose 5-20 mg/kg, route ip, time 13.0 day
# [14] = biological target: Programmed cell death protein 1/Programmed cell death 1 ligand 1 (Homo sapiens) (UniProt Q15116+Q9NZQ7); test: Inhibition of PD-1/PD-L1 (unknown origin) interaction in human PBMC cells assessed as increase in IFN-gamma level at 100 nM pretreated with anti-CD3/CD28 and PD-L1 followed by compound addition measured after 72 hrs by ELISA; type: cell-based
# [15] = Toxicity in C57BL/6J mouse implanted with mouse MC38 cells assessed as animal mortality at 40 to 160 mg/kg, IG qd for 7 days; type: organism-based; conditions: in vivo, po, 168 h, dose 40-160 mg/kg, time 7 day
# [16] = Toxicity in C57BL/6J mouse implanted with mouse MC38 cells assessed as change in excised body weight at 40 to 160 mg/kg, IG qd for 7 days; type: organism-based; conditions: in vivo, po, 168 h, dose 40-160 mg/kg, time 7 day
# [17] = Toxicity in C57BL/6J mouse implanted with mouse MC38 cells assessed as change in spleen index at 5 to 20 mg/kg, ip qd for 13 days; type: organism-based; conditions: in vivo, 312 h, dose 5-20 mg/kg, time 13 day
# [18] = Toxicity in C57BL/6J mouse implanted with mouse MC38 cells assessed as change in serum AST level at 5 to 20 mg/kg, ip qd for 13 days; type: organism-based; conditions: in vivo, 312 h, dose 5-20 mg/kg, time 13 day
# [19] = Toxicity in C57BL/6J mouse implanted with mouse MC38 cells assessed as change in monocytes count at 40 to 160 mg/kg, IG qd for 7 days; type: organism-based; conditions: in vivo, po, 168 h, dose 40-160 mg/kg, time 7 day
# [20] = Toxicity in C57BL/6J mouse implanted with mouse MC38 cells assessed as kidney weight ratio at 40 to 160 mg/kg, IG qd for 7 days; type: organism-based; conditions: in vivo, po, 168 h, dose 40-160 mg/kg, time 7 day
# MC-38 [21] = test: Antitumor activity against mouse MC38 cells implanted in C57BL/6J mouse assessed as tumor growth inhibition administered intragastrically once daily for 7 days; type: functional, cell-based; conditions: dose 40-160 mg/kg, route ig, time 7.0 day
# [22] = Toxicity in C57BL/6J mouse implanted with mouse MC38 cells assessed as change in MCV count at 40 to 160 mg/kg, IG qd for 7 days; type: organism-based; conditions: in vivo, po, 168 h, dose 40-160 mg/kg, time 7 day
# [23] = Binding affinity to human PD-L1 assessed as dissociation constant by SPR analysis
# [24] = Toxicity in C57BL/6J mouse implanted with mouse MC38 cells assessed as change in neutrophils count at 40 to 160 mg/kg, IG qd for 7 days; type: organism-based; conditions: in vivo, po, 168 h, dose 40-160 mg/kg, time 7 day
# [25] = Toxicity in C57BL/6J mouse implanted with mouse MC38 cells assessed as change in excised body weight at 5 to 20 mg/kg, ip qd for 13 days; type: organism-based; conditions: in vivo, 312 h, dose 5-20 mg/kg, time 13 day
# [26] = Toxicity in C57BL/6J mouse implanted with mouse MC38 cells assessed as animal mortality at 5 to 20 mg/kg, ip qd for 13 days; type: organism-based; conditions: in vivo, 312 h, dose 5-20 mg/kg, time 13 day
# Mus musculus [27] = test: Restoration of immune function in C57BL/6J mouse implanted with mouse MC38 cells assessed as increase in serum TNF-alpha level administered intraperitoneally once daily for 13 days by ELISA; type: functional, organism-based; conditions: dose 5-20 mg/kg, route ip, time 13.0 day
# [28] = Cytotoxicity against human BEAS-2B cells measured after 48 hrs by MTT assay; type: toxicity, cell-based
# [29] = Toxicity in C57BL/6J mouse implanted with mouse MC38 cells assessed as change in kidney index at 5 to 20 mg/kg, ip qd for 13 days; type: organism-based; conditions: in vivo, 312 h, dose 5-20 mg/kg, time 13 day
# [30] = Stability in human plasma at 1 mM measured up to 7 hrs by HPLC analysis; type: ADME, cell-free; conditions: 1000 µM
# [31] = Toxicity in C57BL/6J mouse implanted with mouse MC38 cells assessed as heart weight ratio at 40 to 160 mg/kg, IG qd for 7 days; type: organism-based; conditions: in vivo, po, 168 h, dose 40-160 mg/kg, time 7 day
# [32] = Half life in Sprague-Dawley rat at 20 mg/kg, po measured for 24 hrs by LC-MS/MS analysis; type: ADME, organism-based; conditions: in vivo
# [33] = AUC (0 to 24 hrs) in Sprague-Dawley rat at 20 mg/kg, po measured for 24 hrs by LC-MS/MS analysis; type: ADME, organism-based; conditions: in vivo
# Mus musculus [34] = test: Restoration of immune function in C57BL/6J mouse implanted with mouse MC38 cells assessed as increase in serum IL-2 level administered intraperitoneally once daily for 13 days by ELISA; type: functional, organism-based; conditions: dose 5-20 mg/kg, route ip, time 13.0 day
# [35] = Clearance in Sprague-Dawley rat at 20 mg/kg, po measured for 24 hrs by LC-MS/MS analysis; type: ADME, organism-based; conditions: in vivo
# [36] = Clearance in Sprague-Dawley rat at 10 mg/kg, ip measured for 24 hrs by LC-MS/MS analysis; type: ADME, organism-based; conditions: in vivo
# [37] = Toxicity in C57BL/6J mouse implanted with mouse MC38 cells assessed as change in CREA-SOX level at 40 to 160 mg/kg, IG qd for 7 days; type: organism-based; conditions: in vivo, po, 168 h, dose 40-160 mg/kg, time 7 day
# [38] = Half life in Sprague-Dawley rat at 10 mg/kg, ip measured for 24 hrs by LC-MS/MS analysis; type: ADME, organism-based; conditions: in vivo
smiles,measurement,setting,value
C[C@H](N)C(=O)N1Cc2ccc(-c3cccc(-c4ccc5c(c4)OCCO5)c3Cl)cc2C1.Cl,IC50 at 48 h,[1],12000 nM
same,Activity,Mus musculus [2],Dose-dependent-effect
same,bioavailability,[3],21.4%
same,Activity,[4],Non-toxic
same,AUC(0-inf),[5],644 ng·h/mL
same,Activity,MC-38 [6],Active
same,inhibition,MC-38 [7],Active
same,IC50,[8],4.8 nM
same,Activity,[9],Non-toxic
same,Activity,[10],Non-toxic
same,AUC(0-t) at 24 h,[11],180 ng·h/mL
same,inhibition,MC-38 [12],Active
same,Activity,Mus musculus [13],Dose-dependent-effect
same,inhibition,[14],Active
same,Activity,[15],Non-toxic
same,Activity,[16],Non-toxic
same,Activity,[17],Non-toxic
same,Activity,[18],Non-toxic
same,Activity,[19],Non-toxic
same,Activity,[20],Non-toxic
same,inhibition,MC-38 [21],Dose-dependent-effect
same,Activity,[22],Non-toxic
same,Kd,[23],230 nM
same,Activity,[24],Non-toxic
same,Activity,[25],Non-toxic
same,Activity,[26],Non-toxic
same,Activity,Mus musculus [27],Dose-dependent-effect
same,IC50 at 48 h,[28],> 10000 nM
same,Activity,[29],Non-toxic
same,Stability,[30],Stable
same,Activity,[31],Non-toxic
same,half-life,[32],3.58 h
same,AUC(0-t) at 24 h,[33],467 ng·h/mL
same,Activity,Mus musculus [34],Dose-dependent-effect
same,CL/F,[35],401 mL/min/kg
same,CL/F,[36],103 mL/min/kg
same,Activity,[37],Non-toxic
same,half-life,[38],4.02 h
